From US20240100075A1, “Synthetic Compositions Comprising LNFP III and LSTa” (FrieslandCampina Nederland B.V., priority 2020, published 2024)

Legend:
Assay type in all cases: cell-based, human
Interleukin-10 (IL-10) = assay: Cytokine analysis (Cytometric Bead Array) in PBMC supernatant, IL-10; settings: for effect on the expression of IL10 (summary statement): PBMC, single HMOs and total pool of HMO, method not given
Procedure: BD™ Cytometric Bead Array (CBA) Human Th1/Th2/Th17 Cytokine Kit (560484, BD) was used to measure Interleukin-6 (IL-6) and Interleukin-10 (IL-10) protein levels in supernatant following the manufacturer's instructions. After acquiring samples on the FACS (Easycyte 8HT), the FCAP Array™ software was used to determine cytokine concentrations.
PBMC's from 3 donors were isolated from a buffy coat using Sepmate tubes. The cells were diluted to a concentration of 1*10^7 cells per ml. The PBMC's were seeded in 6 wells plates and treated with 0.5 g/l of 2′-FL or a mix of LNFP-III with LSTa 1:1 w/v in PBMC culturing medium for 24 h. Cells incubated with no HMOs were used as control. The supernatants from these cultures were collected and BD™ Cytometric Bead Array (CBA) Human Th1/Th2/Th17 Cytokine Kit (560484, BD) was used to measure Interleukin-6 (IL-6) and Interleukin-10 (IL-10) protein levels in supernatant following the manufacturer's instructions. After acquiring samples on the FACS (Easycyte 8HT), the FCAP Array™ software was used to determine cytokine concentrations.

Interleukin-6 (IL-6) = assay: Cytokine analysis (Cytometric Bead Array) in PBMC supernatant, IL-6; settings: PBMCs of 3 donors, 0.5 g/l, 24 h, FIG. 8, compared with control
Procedure: BDTM Cytometric Bead Array (CBA) Human Th1/Th2/Th17 Cytokine Kit (560484, BD) was used to measure Interleukin-6 (IL-6) and Interleukin-10 (IL-10) protein levels in supernatant following the manufacturer's instructions. After acquiring samples on the FACS (Easycyte 8HT), the FCAP ArrayTM software was used to determine cytokine concentrations. PBMC's from 3 donors were isolated from a buffy coat using Sepmate tubes. The cells were diluted to a concentration of 1*10^7 cells per ml. The PBMC's were seeded in 6 wells plates and treated with 0.5 g/l of 2'-FL or a mix of […] in PBMC culturing medium for 24 h. Cells incubated with no HMOs were used as control. The supernatants from these cultures were collected and BDTM Cytometric Bead Array (CBA) Human Th1/Th2/Th17 Cytokine Kit (560484, BD) was used to measure Interleukin-6 (IL-6) and Interleukin-10 (IL-10) protein levels in supernatant following the manufacturer's instructions. After acquiring samples on the FACS (Easycyte 8HT), the FCAP ArrayTM software was used to determine cytokine concentrations.

FoxP3 = assay: Intracellular staining of transcription factors in PBMCs (FACS), FoxP3; settings: PBMC, single HMOs and total pool of HMO; method not given
Procedure: (§1) For intracellular staining PBMCs from 3 donors were incubated with the mentioned HMOs (0.5 g/1) for 24 h prior to analysis. In a 96-wells plate 5*10^5 PBMCs were pelleted at 300 g for 4 minutes. Subsequently, the cells were blocked using 25 μL of blocking buffer (Human BD Fc Block™,BD) and incubated for 10 minutes at room temperature. Then, 25 μL of anti-CD4 FITC (555346, BD) and anti-CD3 APC (555335, BD) were added to each test. The cells were incubated 30 minutes on ice. After the cells were washed twice with Stain Buffer (FBS) (554657, BD) an intracellular staining for the transcription factors was performed by the Transcription Factor Buffer Set (562574, BD). FoxP3 PE (560852, BD) and RORγT PE (563081, BD) were used. Cells were analyzed with FACS (Easycyte 8HT). Expression of FoxP3 and RORγT was analyzed in the CD4-positive cells.
PBMC's from 3 donors were isolated from a buffy coat using Sepmate tubes. The cells were diluted to a concentration of 1*10^7 cells per ml. The PBMC's were seeded in 6 wells plates and treated with 0.5 g/l of 2′-FL or a mix of LNFP-III with LSTa 1:1 w/v in PBMC culturing medium for 24 h. Cells incubated with no HMOs were used as control. For Fluorescence Activated Cell Sorting (FACS), 5*10^5 PBMCs were pelleted at 300 g for 4 minutes in a 96-well plate.
as §1, with “Subsequently,” for “For intracellular staining PBMCs from 3 donors were incubated with the mentioned HMOs (0.5 g/1) for 24 h prior to analysis. In a 96-wells plate 5*10^5 PBMCs were pelleted at 300 g for 4 minutes. Subsequently,”, “8HT).” for “8HT). Expression of FoxP3 and RORγT was analyzed in the CD4-positive cells.”

IL23A = assay: RNA sequencing in PBMCs, IL23A gene expression; settings: PBMCs of 3 donors, 0.5 g/l HMO, 6 h, Polymyxin B as control, FIG. 4
Procedure: (§2) Peripheral blood mononuclear cells (PBMCs) were isolated from a buffy coat using Sepmate tubes. The cells were diluted to a concentration of 1*10^7 cells per ml. The PBMC's were seeded in 6 wells plates and treated with 0.5 g/l of each HMO in PBMC culturing medium for 6 h prior to RNA isolation. Each human milk oligosaccharide (HMO) was mixed with 100 ug/ml (microgram/milliliter) final concentration of Polymyxin B to ensure neutralization of possible endotoxin contamination of HMOs, while equal amounts of Polymyxin B were used as a control. As a positive control HMOs isolated from pooled human milk sample were used. Single HMOs were purchased from BOC Sciences.
(§3) 2500 ng RNA, isolated from PBMCs of 3 donors, was translated into cDNA, using the quantitect reverse transcription kit (Qiagen). RNA sequencing and analysis was performed by use of the NOVOGENE platform according to standard procedures. Gene expression is shown for CSF3, CD25 (IL2RA), IL12B and IL23A as regulated by the pool of HMOs as isolated from human milk (pHMOs), LNFP-III, LSTa and DSLNT.
(§4) PBMC's from 3 donors were isolated from a buffy coat using Sepmate tubes. The cells were diluted to a concentration of 1*10^7 cells per ml. […]
(§5) 2500 ng RNA, isolated from PBMCs, was translated into cDNA, using the quantitect reverse transcription kit (Qiagen). […]

IL12B = assay: RNA sequencing in PBMCs, IL12B gene expression; settings: PBMCs of 3 donors, 0.5 g/l HMO, 6 h, Polymyxin B as control, FIG. 3
Procedure: as §2, §3
as §2, with “PBMC's from 3 donors” for “Peripheral blood mononuclear cells (PBMCs)”, “HMO” for “human milk oligosaccharide (HMO)”, “ug/ml” for “ug/ml (microgram/milliliter)”
as §3, with “from PBMCs,” for “from PBMCs of 3 donors,”, “expression was” for “expression is”

CD25 (IL2RA) = assay: RNA sequencing in PBMCs, CD25 (IL2RA) gene expression; settings: PBMCs of 3 donors, 0.5 g/l HMO, 6 h, Polymyxin B as control, FIG. 2
Procedure: as §2, §3
as §2, with “PBMC's from 3 donors” for “Peripheral blood mononuclear cells (PBMCs)”, “HMO” for “human milk oligosaccharide (HMO)”, “ug/ml” for “ug/ml (microgram/milliliter)”
as §3, with “from PBMCs,” for “from PBMCs of 3 donors,”, “expression was” for “expression is”

CSF3 = assay: RNA sequencing in PBMCs, CSF3 gene expression; settings: PBMCs of 3 donors, 0.5 g/l HMO, 6 h, Polymyxin B as control, FIG. 1
Procedure: as §2, §3, §4, §5

Compound | effect on the expression of IL10 (summary statement) (Interleukin-10 (IL-10)) | expression of IL10 (protein level in supernatant) (Interleukin-10 (IL-10); PBMCs of 3 donors, 0.5 g/l, 24 h, FIG. 7, mixture value is average) | expression of IL6, result in words (Interleukin-6 (IL-6)) | effect on the expression of FoxP3 (summary statement) (FoxP3) | expression of IL23A (IL23A) | expression of IL12B (IL12B) | expression of CD25 (CD25 (IL2RA)) | relative expression of CSF3 (CSF3)
2′-fucosyllactose [2′FL, reference compound] | no effect | less than 3 pg/ml | no expression | no effect | – | – | – | –
CC(=O)N[C@H]1[C@H](O[C@H]2[C@@H](O)[C@@H](CO)O[C@@H](O[C@H]3[C@H](O)[C@@H](O)C(O)O[C@@H]3CO)[C@@H]2O)O[C@H](CO)[C@@H](O)[C@@H]1O[C@@H]1O[C@H](CO)[C@H](O)[C@H](O[C@]2(C(=O)O)C[C@H](O)[C@@H](NC(C)=O)[C@H]([C@H](O)[C@H](O)CO)O2)[C@H]1O (stereo partly drawn) [LSTa, α-Neu5Ac-(2→3)-β-D-Gal-(1→3)-β-D-GlcNAc-(1→3)-β-D-Gal-(1→4)-Glc] | increase | – | – | increase | about 4.4 | about 3 | around 6.3 | –
α-Neu5Ac-(2→3)-β-D-Gal-(1→3)-[α-Neu5Ac-(2→6)]-β-D-GlcNAc-(1→3)-β-D-Gal-(1→4)-Glc [DSLNT] | – | – | – | – | – | about 2.5 | around 5.5 | around 4
β-D-Gal-(1→4)-[α-L-Fuc-(1→3)]-β-D-GlcNAc-(1→3)-β-D-Gal-(1→4)-D-Glc [LNFP III] | increase | – | – | increase | about 4.3 | about 2.5 | around 5.8 | –
